Laboratory results published in patent US3987028A, “Antibiotic 20,798 R.P” (Rhone-Poulenc S.A., priority 1968, dated 1976).
≈ marks a conversion by molar mass, not a printed value. Counter-ions that a name gives are not always drawn.

What was measured:
solubility = format: physicochemical
sarcoma 180 = assay: anti-tumor activity in mice, sarcoma 180
toxicity on mice (LD50) = conditions: mouse, in vivo, ip, intra-peritoneal (i.p.), read-out: 50% lethal dose (LD50)
Method: The toxicity of 20,798 R.P. has been studied principally on mice. The 50% lethal dose or LD50 was determined intra-peritoneally: […]

[1] = tested on: Lactobacillus casei ATCC 7469; format: cell-based; conditions: Lacticaseibacillus casei, ATCC7469, read-out: Minimal inhibitory concentration
Method: (§1) The bacteriostatic activity of 20,798 R.P. was determined by one of the dilution methods usually employed for this purpose. For each microorganism the minimum concentration of antibiotic, which under specified conditions inhibits all visible development of the microorganism in an appropriate nutrient medium, was determined. The results of the various determinations are collected in Table III below, in which the minimum bacteriostatic concentrations are expressed in micrograms of substance per cc. of test medium.

[2] = tested on: Bacillus subtilis (ATCC 6633); format: cell-based; conditions: ATCC6633, read-out: Minimal inhibitory concentration
Method: as §1

Proteus X 19 = format: cell-based; conditions: read-out: Minimal inhibitory concentration
Method: as §1

[3] = tested on: Salmonella paratyphi A (Lacasse, Institut Pasteur); format: cell-based; conditions: Salmonella enterica, read-out: Minimal inhibitory concentration
Method: as §1

[4] = tested on: Mycobacterium smegmatis ATCC 607; format: cell-based; conditions: Mycolicibacterium smegmatis, ATCC607, read-out: Minimal inhibitory concentration
Method: as §1

[5] = tested on: Mycobacterium para-smegmatis (A 75, Lausanne); format: cell-based; conditions: read-out: Minimal inhibitory concentration
Method: as §1

[6] = tested on: Staphylococcus aureus, strain 209 P ATCC 6538 P; format: cell-based; conditions: ATCC6538; Staphylococcus aureus 209 P ATCC 6538 P; read-out: Minimal inhibitory concentration
Method: as §1

[7] = tested on: Streptococcus faecalis (Faculty of Pharmacy, Paris); format: cell-based; conditions: Enterococcus faecalis, read-out: Minimal inhibitory concentration
Method: as §1

[8] = tested on: Streptococcus pyogenes hemolyticus (strain Dig. 7, Institut Pasteur); format: cell-based; conditions: read-out: Minimal inhibitory concentration
Method: as §1

[9] = tested on: Mycobacterium phlei (Bacteriological Institute of Lyon); format: cell-based; conditions: Mycolicibacterium phlei, read-out: Minimal inhibitory concentration
Method: as §1

[10] = tested on: Neisseria catarrhalis A 152; format: cell-based; conditions: A152, read-out: Minimal inhibitory concentration
Method: as §1

[11] = tested on: Diplococcus pneumoniae (strain Til, Institut Pasteur); format: cell-based; conditions: Streptococcus pneumoniae, read-out: Minimal inhibitory concentration
Method: as §1

Sarcina lutea ATCC 9341 = format: cell-based; conditions: Micrococcus luteus, ATCC9341, read-out: Minimal inhibitory concentration
Method: as §1

[12] = tested on: Pasteurella multocida (A 125, Institut Pasteur); format: cell-based; conditions: read-out: Minimal inhibitory concentration
Method: as §1

[13] = tested on: Klebsiella pneumoniae ATCC 10,031; format: cell-based; conditions: read-out: Minimal inhibitory concentration
Method: as §1

[14] = stability to acid treatment of the fermentation broth; format: physicochemical; conditions: 10° to 75° C., 48 hours to 30 minutes
Method: When desired, the fermentation broth can, before the extraction procedures, be treated with an acid at a temperature between 10° and 75° C. for a period of from 48 hours to 30 minutes, the length of time varying inversely with the temperature, so as to enrich the antibiotic 9865 R.P. with daunorubicin. […] For acidification of the fermentation broth inorganic acids (hydrochloric, phosphoric or sulphuric acid) or organic acids (acetic or oxalic acid etc.) are suitable at various concentrations, but preferably hydrochloric acid or oxalic acid is used at concentrations of between 0.01N and 1N. The hydrolysis is preferably carried out for a period of from 15 hours to 1 hour at a temperature of from 20° C. to 50° C., the length of time varying inversely with the temperature.

[15] = tested on: Brucella bronchiseptica (CN 387 - Wellcome Institute); assay: microbe, parasite or virus in culture; format: cell-based; conditions: Bordetella bronchiseptica, read-out: Minimal inhibitory concentration
leucaemia L 1210 = assay: anti-tumor activity in mice, leucaemia L 1210

**Q.** Which Solubility (solubility; alcohols) does the source give for `COc1cccc2c1C(=O)c1c(O)c3c(c(O)c1C2=O)CC(O)(C(C)O)CC3OC1CC(N)C(O)C(C)O1` (stereo not shown) [20,798 R.P. hydrochloride] here?
**A.** soluble

**Q.** What about the Solubility (solubility; benzene) of the same molecule?
**A.** practically insoluble

**Q.** What about the Solubility (solubility; chloroform) of the same molecule?
**A.** sparingly soluble

**Q.** What about the Solubility (solubility; diethyl ether) of the same molecule?
**A.** practically insoluble

**Q.** What about the Solubility (solubility; water) of the same molecule?
**A.** soluble

**Q.** With `COc1cccc2c1C(=O)c1c(O)c3c(c(O)c1C2=O)CC(O)(C(C)O)CC3OC1CC(N)C(O)C(C)O1` (stereo not shown) [20,798 R.P.] as the molecule, how does the ED50 (sarcoma 180; Mus musculus, Sarcoma-180, sc, read-out: 50% active dose (AD50)) read?
**A.** 0.75 mg/kg

**Q.** What about the anti-tumor activity (sarcoma 180; graftable tumours of mice, solid form of sarcoma 180) of the same molecule?
**A.** particularly active

**Q.** What about the LD50 (toxicity on mice (LD50)) of the same molecule?
**A.** 6.5 mg/kg

**Q.** What about the MIC [1] of the same molecule?
**A.** 24 µg/mL (≈ 45.3 µM)

**Q.** And the MIC [2]?
**A.** 21 µg/mL (≈ 39.7 µM)

**Q.** What about the MIC (Proteus X 19) of the same molecule?
**A.** > 83 µg/mL

**Q.** And the MIC [3]?
**A.** > 83 µg/mL

**Q.** And the MIC [4]?
**A.** 5.8 µg/mL (≈ 11 µM)

**Q.** And the MIC [5]?
**A.** 3.1 µg/mL (≈ 5.85 µM)

**Q.** And the MIC [6]?
**A.** 100 µg/mL (≈ 189 µM)

**Q.** And the MIC [7]?
**A.** > 33 µg/mL

**Q.** And the MIC [8]?
**A.** 11 µg/mL (≈ 20.8 µM)

**Q.** And the MIC [9]?
**A.** 3.1 µg/mL (≈ 5.85 µM)

**Q.** What about the MIC [10] of the same molecule?
**A.** > 28 µg/mL

**Q.** What about the MIC [11] of the same molecule?
**A.** 6.1 µg/mL (≈ 11.5 µM)

**Q.** What about the MIC (Sarcina lutea ATCC 9341) of the same molecule?
**A.** 12 µg/mL (≈ 22.7 µM)

**Q.** And the MIC [12]?
**A.** 14 µg/mL (≈ 26.4 µM)

**Q.** And the MIC [13]?
**A.** > 330 µg/mL

**Q.** What about the “hydrolysis under acid treatment” value [14] of the same molecule?
**A.** not hydrolysed

**Q.** What about the MIC [15] of the same molecule?
**A.** 170 µg/mL (≈ 321 µM)

**Q.** And the ED50 (leucaemia L 1210; Mus musculus, L1210, ip, read-out: 50% active dose (AD50))?
**A.** 0.8 mg/kg

**Q.** And the anti-tumor activity (leucaemia L 1210; graftable tumours of mice, leucaemia L 1210)?
**A.** particularly active

**Q.** With `COc1cccc2c1C(=O)c1c(O)c3c(c(O)c1C2=O)CC(O)(C(C)O)CC3O` (stereo not shown) [aglycone of 20,798 R.P.] as the molecule, how does the Solubility (solubility; benzene) read?
**A.** very sparingly soluble

**Q.** And the Solubility (solubility; chloroform)?
**A.** sparingly soluble

**Q.** And the Solubility (solubility; diethyl ether)?
**A.** practically insoluble

**Q.** And the Solubility (solubility; ethyl acetate)?
**A.** sparingly soluble

**Q.** And the Solubility (solubility; hexane)?
**A.** practically insoluble

**Q.** And the Solubility (solubility; methanol)?
**A.** sparingly soluble

**Q.** What about the Solubility (solubility; water) of the same molecule?
**A.** practically insoluble
